In patent publication US20250009751A1, “FORMULATIONS OF ANTIVIRAL COMPOUNDS” (Merck Sharp & Dohme LLC, priority 2018, published 2025):

Experiment: pH-dependent solubility of Compound A
Type: physicochemical
Details: particularly between pH 1-4

- solubility profile: sharp pH-dependent solubility profile
SMILES: COC(=O)N[C@H](C(=O)N1CCC[C@H]1c1ncc(-c2cc(F)c3c(c2)O[C@@H](c2cnc(C4CC4)s2)n2c-3cc3cc(-c4cnc([C@@H]5CCCN5C(=O)[C@@H](NC(=O)OC)C(C)C)[nH]4)ccc32)[nH]1)C(C)C [Compound A, dimethyl ((2S,2′S)-((2S,2′S)-2,2′-(5,5′-((S)-6-(2-cyclopropylthiazol-5-yl)-1-fluoro-6H-benzo[5,6][1,3]oxazino[3,4-a]indole-3,10-diyl)bis(1H-imidazole-5,2-diyl))bis(pyrrolidine-2,1-diyl))bis(3-methyl-1-oxobutane-2,1-diyl))dicarbamate]
